Values of other authors in US20070042062A1, “Novel anti-diabetic herbal formulation” (COUNCIL OF SCIENTIFIC AND INDUSTRIAL RESEARCH., priority 2004, published 2007).

Legend:
[1] = system: carrageenin-induced acute oedema; settings: mice
[2] = system: patients suffering from chronic antieri or ureitis (CAU); settings: 375 mg three times a day for 12 weeks, oral; curcumin alone
monkey = settings: in vivo
male volunteers = system: male volunteers; parameters: dose or concentration left out as unconfirmed; settings: for 4 weeks

SMILES: COc1cc(/C=C/C(=O)CC(=O)/C=C/c2ccc(O)c(OC)c2)ccc1O [Curcumin, curcumin]
- oral ED50 against carrageenin-induced acute oedema [1]: 100.2 mg/kg
- clinical outcome in CAU patients [2]: all the patients who received curcumin alone improved
- toxicity on single or repeated oral administration (monkey): did not produce any toxicity
- side effect in phase-I trials (male volunteers): did not produce any side effect
